One block for each compound: values may come before it.
What was measured:
mGlu5 [1] = target: T1, mGlu5 (Homo sapiens, UniProt P41594); test: standard mGlu5 calcium mobilization functional assay, human mGlu5; format: cell-based; conditions: for EC50: EC50 (PAM)
mGlu5 [2] = target: T1, mGlu5; test: standard mGlu5 calcium mobilization functional assay, PAM and NAM modes; format: cell-based
mGlu5 [3] = target: T1, mGlu5; conditions: Figure 1 ref 14; cited from earlier work
[4] = human mGlu5 assay, synthetic material

T1 sequence (P41594 21-1212): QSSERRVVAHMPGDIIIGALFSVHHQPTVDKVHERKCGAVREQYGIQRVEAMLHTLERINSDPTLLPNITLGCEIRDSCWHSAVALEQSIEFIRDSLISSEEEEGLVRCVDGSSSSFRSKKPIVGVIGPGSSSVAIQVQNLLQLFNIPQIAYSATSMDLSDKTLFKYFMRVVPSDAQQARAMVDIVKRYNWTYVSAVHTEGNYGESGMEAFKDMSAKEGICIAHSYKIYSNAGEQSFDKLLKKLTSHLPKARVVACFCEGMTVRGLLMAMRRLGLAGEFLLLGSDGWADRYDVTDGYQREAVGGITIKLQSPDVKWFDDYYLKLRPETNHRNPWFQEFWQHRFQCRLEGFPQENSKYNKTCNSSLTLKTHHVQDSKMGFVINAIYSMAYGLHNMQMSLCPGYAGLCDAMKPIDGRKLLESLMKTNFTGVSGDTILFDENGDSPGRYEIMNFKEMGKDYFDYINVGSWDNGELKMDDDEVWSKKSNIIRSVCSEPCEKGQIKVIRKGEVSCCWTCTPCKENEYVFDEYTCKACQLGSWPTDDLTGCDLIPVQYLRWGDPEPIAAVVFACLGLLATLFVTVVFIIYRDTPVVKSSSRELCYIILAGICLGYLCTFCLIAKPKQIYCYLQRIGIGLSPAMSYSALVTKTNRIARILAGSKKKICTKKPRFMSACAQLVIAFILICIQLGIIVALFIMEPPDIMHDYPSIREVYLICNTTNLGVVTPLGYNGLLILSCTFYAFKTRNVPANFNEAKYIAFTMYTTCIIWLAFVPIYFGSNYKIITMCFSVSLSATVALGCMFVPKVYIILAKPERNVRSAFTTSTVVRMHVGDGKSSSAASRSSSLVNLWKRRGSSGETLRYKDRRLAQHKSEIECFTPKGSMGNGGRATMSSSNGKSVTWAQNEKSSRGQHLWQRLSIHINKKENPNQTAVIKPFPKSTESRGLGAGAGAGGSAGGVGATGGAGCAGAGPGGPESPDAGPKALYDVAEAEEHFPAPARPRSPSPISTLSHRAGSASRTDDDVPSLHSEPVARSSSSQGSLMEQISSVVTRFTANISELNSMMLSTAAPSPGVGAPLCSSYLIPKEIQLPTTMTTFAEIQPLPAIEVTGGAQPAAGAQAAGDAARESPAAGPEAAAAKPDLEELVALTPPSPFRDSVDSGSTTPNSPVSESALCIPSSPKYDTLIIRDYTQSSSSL

EC50 (mGlu5 [1]; kit-produced M4, human mGlu5 assay, material from the BMO production kit): 510 nM
EC50 (mGlu5 [1]; synthetic-derived M4, human mGlu5 assay, synthetic material): 315 nM
% Glu Max, kit-produced M4 (mGlu5 [1]; human mGlu5 assay, material from the BMO production kit): 75 % Glu Max
% Glu Max, synthetic-derived M4 (mGlu5 [1]; [4]): 77%
agonism (no agonism noted up to), synthetic-derived M4 (mGlu5 [1]; [4]): > 30 µM
Structure (SMILES): NC(=O)c1ccc(C#Cc2cccc(F)c2)cn1 [M4, 5-((3-Fluorophenyl)ethynyl)picolinamide]

activity in NAM mode (mGlu5 [2]): inactive
activity in PAM mode (mGlu5 [2]): inactive
Structure (SMILES): O=C(C(=O)c1cccc(F)c1)c1ccc(C(=O)NC2CCC2)nc1 [M5, N-Cyclobutyl-5-(2-(3-fluorophenyl)-2-oxoacetyl)picolinamide]

activity in NAM mode (mGlu5 [2]): inactive
activity in PAM mode (mGlu5 [2]): inactive
Structure (SMILES): O=C(c1ccc(C(=O)NC2CCC2)nc1)c1cccc(F)c1 [M6, N-Cyclobutyl-5-(3-fluorobenzoyl)picolinamide]

Structure (SMILES): O=C(O)c1ccc(C#Cc2cccc(F)c2)cn1 [compound 3, 5-((3-Fluorophenyl)ethynyl)picolinic Acid]
activity of metabolite M2, the product of amide hydrolysis (mGlu5 [3]): inactive
